One block for each molecule: values may come before it.
Tests used:
[1] = target: T1, Cdk9 (Rattus norvegicus, UniProt Q641Z4); experiment: Immune complex CTD kinase assay (GST-CTD substrate), Cdk9; assay type: biochemical
T1 construct: endogenous in cells; host or cells: neonatal rat ventricular myocytes; immunoprecipitated with polyclonal rabbit anti-Cdk9 and protein A-Sepharose
Experimental: (§1) Immune complex kinase assays were performed as described (Yang et al., 1996), using polyclonal rabbit antibody against Cdk7 or Cdk9 together with protein A-Sepharose. Kinase assays were performed by adding 25 μl of 50 mM Tris-HCl [pH 7.4], 10 mM MgCl2, 5 mM dithiothreitol, 2.5 mM MnCl2, 5 μM ATP, 5 μCi of [γ-^32P]ATP, and 200 ng of GST-CTD to the beads and incubating at room temperature for 60 min. The complexes were resolved by SDS-polyacrylamide gel electrophoresis, and CTD phosphorylation was visualized by autoradiography and quantified using a phosphorimager and ImageQuant version 5.2 (Molecular Dynamics). Where indicated, immunoprecipiates were incubated with 50 μg/ml of bovine pancreas ribonuclease A (RNase A; Sigma) for 60 min prior to the CTD kinase assay.
(§2) Next, cells were preincubated with DRB for 2 hr at the concentrations shown, and were assayed for pol II phosphorylation after stimulation with ET-1 for 15 min or the indicated intervals. Immune complexes were treated in vitro with 50 μM DRB and assayed by phosphorylation of the recombinant GST-CTD substrate. […] Based on this effect, 50 μM DRB was added in vitro to cardiac Cdk9 and Cdk7 immune complexes, and assayed for its effect on phosphorylation of the recombinant CTD substrate.

[2] = system: cardiac myocytes; experiment: [3H]uridine incorporation (RNA synthesis) in cardiac myocytes; assay type: cell-based, rat
Experimental: (§3) Neonatal ventricular myocytes from 1 to 2 day-old Sprague-Dawley rats were subjected to Percoll gradient centriftigation and differential plating, to enrich for cardiac myocytes and deplete nonmyocytes (Oh et al., 2001). Cells were infected for 6 hr, after overnight culture, at a multiplicity of infection (MOI) of 20, then were cultured in serum-free medium for an additional 24 hr before the addition of agonists. The efficiency of viral gene transfer is >95% under the conditions used. DRB (Sigmna) was dissolved in dimethylsulfoxide (DMSO) and then in culture medium to the desired final concentration in 0.1% (vol/vol) DMSO.
Cells were incubated for 24 hr with 1 μCi/ml of either precursor, in the absence or presence of ET-1 and [^3H]uridine and [^3H]phenylalanine incorporation was measured. Total RNA was extracted using TRIzol (Invitrogen), for simultaneous extraction of DNA from the samples.
(§4) Hypertrophy was monitored as [^3H]uridine incorporation (FIG. 2F, FIG. 2H; n=4 per group) and [^3H]phenylalanine incorporation (FIG. 2I; n=6 per group), corrected for DNA content. Myocyte size was visualized with eGFP (FIG. 2G, FIG. 2J). Bar, 100 μm.

[3] = target: cyclin dependent kinase 9 (Cdk9) (endogenous, mouse myocardium) (mouse) (UniProt Q99J95); experiment: cell-based or functional assay
[4] = system: pol II CTD; experiment: Western blotting of pol II CTD phosphorylation in cultured ventricular myocytes; assay type: cell-based, rat; settings: for hyperphosphorylation of pol II: serum-starved 24 hr, stimulated 15 min, ET-1 0.1 μM, PE 0.1 μM, HB-EGF 1 nM
Experimental: Western blotting was performed using the identical cell lysates. The following antibodies were used: rabbit antibodies against pol II, Cdk7, Cyclin H, MAT1, CyclinT1, Hsp70, Hsp90 and Cdc37; goat antibody against Cyclin T2a/b; and mouse monoclonal antibodies to the Ser2 and Ser5 CTD phoshopeptides (Patturajan et al., 1998; Herrmann et al., 2001). Protein expression was visualized using horseradish peroxidase-conjugated second antibodies and enhanced chemiluminescence reagents (Amersham Pharmacia Biotech).
as §3
Briefly, ventricular myocytes were analyzed by Western blotting as in Example 1. Ventricular myocytes were serum-starved for 24 hr, stimulated for 15 min with ET-1 (0.1 μM), PE (0.1 μM), HB-EGF (1 nM), or the vehicle, and analyzed by Western blotting with antibody to the pol II CTD. Ventricular myocytes were stimulated with ET-1 for the indicated times.
as §2

[5] = target: T2, Cdk7 (Rattus norvegicus, UniProt P51952); experiment: Immune complex CTD kinase assay (GST-CTD substrate), Cdk7; assay type: biochemical; settings: 50 μM DRB added in vitro to cardiac immune complexes
T2 construct: endogenous in cells; host or cells: neonatal rat ventricular myocytes; immunoprecipitated with polyclonal rabbit anti-Cdk7 and protein A-Sepharose
T2 sequence (P51952 1-329): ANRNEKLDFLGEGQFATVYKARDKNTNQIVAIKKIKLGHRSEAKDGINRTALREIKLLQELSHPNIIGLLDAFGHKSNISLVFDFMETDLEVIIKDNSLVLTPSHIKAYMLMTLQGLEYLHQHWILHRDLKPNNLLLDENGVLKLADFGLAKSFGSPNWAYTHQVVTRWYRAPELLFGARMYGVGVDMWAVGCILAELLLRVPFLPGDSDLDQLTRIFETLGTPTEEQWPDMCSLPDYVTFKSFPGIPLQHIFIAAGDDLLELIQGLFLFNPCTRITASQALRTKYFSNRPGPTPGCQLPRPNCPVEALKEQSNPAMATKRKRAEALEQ
T2 sequence (Q9R1A0 1-323 partner): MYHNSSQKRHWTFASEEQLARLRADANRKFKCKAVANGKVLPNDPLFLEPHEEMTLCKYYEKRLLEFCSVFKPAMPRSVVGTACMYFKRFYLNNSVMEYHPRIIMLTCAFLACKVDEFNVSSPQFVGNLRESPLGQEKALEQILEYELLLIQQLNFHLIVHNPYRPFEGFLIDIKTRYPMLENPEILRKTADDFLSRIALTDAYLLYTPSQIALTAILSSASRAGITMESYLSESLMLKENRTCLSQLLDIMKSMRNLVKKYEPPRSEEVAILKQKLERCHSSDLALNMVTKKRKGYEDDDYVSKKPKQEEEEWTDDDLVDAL
Experimental: as §1, §2

[6] = system: cardiac myocytes; experiment: Myocyte size visualized with eGFP; assay type: cell-based, rat; settings: DRB pretreatment, ET-1 stimulation
Experimental: as §3, §4

[7] = system: cardiac myocytes; experiment: Myocyte apoptosis by flow cytometry (hypodiploid DNA); assay type: cell-based
Text: Myocyte apoptosis was monitored by flow cytometry as hypodiploid DNA, using FITC-conjugated MF20 antibody to sarcomeric myosin heavy chains and propidium iodide in the presence of RNase A (Oh et al., 2001).

[8] = system: mitogen-activated protein kinases; experiment: Phosphorylation of mitogen-activated protein kinases in cultured cardiac myocytes; assay type: cell-based, rat; settings: 50 μM DRB
[9] = target: Cdk9 (Homo sapiens, UniProt P50750); settings: Zhu et al., 1997; cited from earlier work
[10] = system: cyclin T/Cdk9 complex; experiment: Co-precipitation of 7SK snRNA with cyclin T/Cdk9 (RT-PCR of immune complexes); assay type: cell-based, rat; settings: cardiac myocytes treated with ET-1
Experimental: Total RNA was isolated from Cdk9, cyclin T1, cyclin T2, and Cdk7 immune complexes using TRIzol and subjected to DNase I (Invitrogen) for 15 min at room temperature, followed by reverse transcription using antisense oligonucleotides for 7SK snRNA. The PCR primers were: sense, (SEQ. ID. NO. 3) […]; antisense, (SEQ. ID. NO. 4) […]. PCR products were subjected to electrophoresis on 2% agarose gel and stained with ethidium bromide.
ET-1 caused the rapid loss of Cdk9-associated 7SK snRNA, within 15 min. These findings were substantiated using each of three antibodies to the cyclin T/Cdk9 complex. Levels of 7SK RNA in the corresponding total cell lysates were unchanged. […] Thus, hypertrophic signals in cultured cardiac myocytes and the intact heart induce the dissociation of 7SK RNA from endogenous cyclin T/Cdk9. […] Conversely, endogenous cyclin T/Cdk9 was recovered from cardiac lysates using streptavidin-agarose plus a biotinylated 2′-O-methyl (2′-OMe) oligonucleotide complementary to 7SK snRNA (FIG. 3G): this method confirmed independently the dissociation of 7SK snRNA from cardiac cyclin T/Cdk9 for Gq and calcineurin.

[11] = antisense knockdown of 7SK snRNA, 48 hr after transfection, cardiac myocytes
[12] = 50 μM, cardiac myocytes, [3H]uridine incorporation

Chain of cyclin dependent kinase 9 (Cdk9) (endogenous, mouse myocardium) (mouse) (Q99J95 whole entry): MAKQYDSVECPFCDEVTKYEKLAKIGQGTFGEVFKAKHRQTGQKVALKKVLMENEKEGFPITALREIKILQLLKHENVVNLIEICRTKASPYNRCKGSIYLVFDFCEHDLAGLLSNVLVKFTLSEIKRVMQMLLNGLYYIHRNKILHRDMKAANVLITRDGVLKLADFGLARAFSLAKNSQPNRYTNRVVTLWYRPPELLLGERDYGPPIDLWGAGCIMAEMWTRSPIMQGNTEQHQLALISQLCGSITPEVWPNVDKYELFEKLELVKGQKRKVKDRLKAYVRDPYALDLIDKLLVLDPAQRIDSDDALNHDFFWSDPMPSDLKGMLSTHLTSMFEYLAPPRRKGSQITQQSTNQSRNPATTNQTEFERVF
T1 sequence (Q641Z4 whole entry): as the sequence (Q99J95 whole entry) above
Chain of Cdk9 (Homo sapiens, UniProt P50750) (P50750 whole entry, species assumed): as the sequence (Q99J95 whole entry) above, with T17S, K37R, Q40K, K258N, F262Y counted along it
Chain of Cdk9 (Homo sapiens, UniProt P50750) (O60563 whole entry partner, species assumed): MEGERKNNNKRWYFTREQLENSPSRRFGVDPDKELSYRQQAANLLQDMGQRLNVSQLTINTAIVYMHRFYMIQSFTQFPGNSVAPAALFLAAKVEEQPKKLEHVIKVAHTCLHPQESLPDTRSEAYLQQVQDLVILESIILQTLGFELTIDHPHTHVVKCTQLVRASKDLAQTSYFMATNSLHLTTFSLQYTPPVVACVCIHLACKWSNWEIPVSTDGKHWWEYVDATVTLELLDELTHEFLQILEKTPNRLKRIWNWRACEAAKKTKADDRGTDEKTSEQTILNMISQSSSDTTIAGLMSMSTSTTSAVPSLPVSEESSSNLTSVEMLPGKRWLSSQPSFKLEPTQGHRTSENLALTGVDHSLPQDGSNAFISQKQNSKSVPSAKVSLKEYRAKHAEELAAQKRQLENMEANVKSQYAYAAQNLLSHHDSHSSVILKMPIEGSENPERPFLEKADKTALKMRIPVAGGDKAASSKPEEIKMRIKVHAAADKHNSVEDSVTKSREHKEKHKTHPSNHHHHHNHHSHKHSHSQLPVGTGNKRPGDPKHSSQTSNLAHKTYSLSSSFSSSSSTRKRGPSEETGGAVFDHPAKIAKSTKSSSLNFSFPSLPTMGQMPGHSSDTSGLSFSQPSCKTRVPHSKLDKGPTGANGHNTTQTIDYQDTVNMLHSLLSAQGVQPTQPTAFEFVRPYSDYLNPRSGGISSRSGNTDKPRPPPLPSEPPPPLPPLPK

Molecule: antisense 7SK: antisense phosphorothioate oligonucleotide, SEQ. ID. NO. 1, 5′-CCTTGAGAGCTTGTTTGG AGG-3′, against 7SK snRNA (antisense CCTTGAGAGCTTGTTTGGAGG; all phosphorothioate, sugars by position and methylation of C not given here)
endogenous Cdk9 activity [1, 11]: markedly increased
uridine incorporation [2, 11]: as large an increase in uridine incorporation as did ET-1 itself

Cdk9 activity (immune complex CTD kinase assay), high-expression transgenic line [3]: 6 fold
Cdk9 activity (immune complex CTD kinase assay), low-expression transgenic line [3]: 2 fold
baseline Cdk9 activity (immune complex kinase assay), cyclin T1 mice versus wild-type littermates [3]: 4.4 fold
Molecule: mouse cyclin T1 (cardiac-specific αMHC-cyclin T1 transgene) (from UniProt Q9QWV9 1-724)

Molecule: OC[C@H]1O[C@@H](n2cnc3cc(Cl)c(Cl)cc32)[C@H](O)[C@@H]1O [DRB, 5,6-dichloro-1-beta-D-ribofuranosylbenzimidazole]
ET-1-induced pol II phosphorylation ([4]; 50 μM DRB, preincubated 2 hr, ET-1 15 min, cultured cardiac myocytes): inhibited
Cdk9 activity (phosphorylation of recombinant CTD substrate) ([1]; 50 μM DRB added in vitro to cardiac immune complexes): blocked Cdk9 activity almost completely
Cdk7 activity (phosphorylation of recombinant CTD substrate) [5]: little or no effect
inhibition of ET-1 induced RNA synthesis [2, 12]: ~80%
inhibition of basal RNA synthesis [2, 12]: ~80%
ET-1-associated increase in myocyte size [6]: blocked
apoptosis ([7]; conditions sufficient to block ET-1 induction of pol II phosphorylation almost completely): no increase in apoptosis
cell death ([7]; higher concentrations that block RNA synthesis more completely): did induce cell death
phosphorylation of mitogen-activated protein kinases downstream of ET-1 [8]: without impairing
selectivity among CTD kinases [9]: selective activity against Cdk9

Molecule: CNC[C@H](O)c1cccc(O)c1 [PE, phenylephrine]
hyperphosphorylation of pol II [4]: induced

Cdk9 CTD kinase activity ([1]; ventricular myocytes stimulated with ET-1 for 15 min): increased
Molecule: endothelin-1 [ET-1]
increase in proportion of pol IIo ([4]; ET-1 time course, peak at 15 min, from 4% at baseline): 9 fold
maximum proportion of pol IIo ([4]; ET-1 time course, peak at 15 min, baseline 4%): 36%
preferred CTD heptad residue phosphorylated ([4]; phospho-epitope specific antibodies, Ser2 vs Ser5): preferentially induce phosphorylation at Ser2
hyperphosphorylation of pol II [4]: induced
augmentation of [3H]uridine incorporation ([2]; control eGFP-infected myocytes, 24 hr): one-third
time to loss of Cdk9-associated 7SK snRNA [10]: ≤ 15 min

B1: heparin-binding epidermal growth factor (protein, UniProt Q99075 63-148, looked up)
Heparin-binding EGF-like …: DLQEADLDLLRVTLSSKPQALATPNKEEHGKRKKKGKGLGKKRDPCLRKYKDFCIHGECKYVKELRAPSCICHPGYHGERCHGLSL
notes: member of the EGF family, secreted mediator of growth signals in the heart
hyperphosphorylation of pol II [4]: induced

B2: RNase A: bovine pancreas ribonuclease A (Sigma) (protein, UniProt P61823 27-150, looked up)
Ribonuclease pancreatic: KETAAAKFERQHMDSSTSAASSSNYCNQMMKSRNLTKDRCKPVNTFVHESLADVQAVCSQKNVACKNGQTNCYQSYSTMSITDCRETGSSKYPNCAYKTTQANKHIIVACEGNPYVPVHFDASV
Cdk9 kinase activity after treatment of immune complexes ([1]; RNase A 50 μg/ml 60 min, control cells, GST-CTD substrate): levels even higher than did ET-1

Source: US20040106647A1, “Modulators of Cdk9 as a therapeutic target in cardiac hypertrophy” (priority 2002, published 2004)
